Assay results reported in patent publication US9284322B2, “Nicotinic receptor compounds” (priority 2010, dated 2016).
Where a name gives a salt, the structure may show the parent alone. Read-outs that look alike come from different tables or passages of the source.

Tests used:
mice [1] = assay type: in vivo, mouse; conditions: for AD50 Hot Plate: antagonist test
Method: (§1) Mice were placed into a 10 cm wide glass cylinder on a hot plate (Thermojust Apparatus) maintained at 55.0° C. Two control latencies at least […] apart were determined for each mouse. […] Antinociceptive response was calculated as percent maximum possible effect (% MPE), where % MPE=[(test−control)/40−control)×100]. The reaction time was scored when the animal jumped or licked its paws.
(§2) Table 6 provides data for a number of compounds of the invention that were tested according to the assays described above.

[2] = target: homomeric nAChRs containing the alpha7 subunit (α7) (Rattus norvegicus (Rat), UniProt Q05941); assay: biochemical; assay type: binding
Sequence of homomeric nAChRs containing the alpha7 subunit (α7) (Q05941 23-502 limits assumed): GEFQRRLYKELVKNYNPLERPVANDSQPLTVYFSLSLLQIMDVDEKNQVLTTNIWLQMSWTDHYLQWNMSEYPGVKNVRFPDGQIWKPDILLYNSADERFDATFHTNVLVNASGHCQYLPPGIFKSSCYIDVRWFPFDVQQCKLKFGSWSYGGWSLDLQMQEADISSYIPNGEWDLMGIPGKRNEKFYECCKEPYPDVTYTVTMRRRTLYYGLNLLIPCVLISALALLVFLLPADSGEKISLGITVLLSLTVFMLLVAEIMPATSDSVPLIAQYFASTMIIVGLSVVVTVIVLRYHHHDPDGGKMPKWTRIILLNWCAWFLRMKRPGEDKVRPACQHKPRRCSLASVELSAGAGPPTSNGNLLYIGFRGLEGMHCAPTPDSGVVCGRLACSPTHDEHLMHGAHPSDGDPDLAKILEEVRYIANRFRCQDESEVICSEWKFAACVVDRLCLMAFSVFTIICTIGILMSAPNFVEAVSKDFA

mice [3] = assay: animal or person; assay type: in vivo, mouse; conditions: for ED50: Mus musculus, sc, 5 min, read-out: ED50 Hot Plate; for Hot Plate, % effect at dose (ED50 column): @ 10 mg/kg; for Hot Plate, % effect at dose (ED50 column) / ED50 Hot Plate: mice, s.c.; for ED50 Hot Plate: tested 5 min after injection
Method: Mice were placed into a 10 cm wide glass cylinder on a hot plate (Thermojust Apparatus) maintained at 55.0° C. Two control latencies at least […] apart were determined for each mouse. The normal latency (reaction time) was 8 to 12 sec. Antinociceptive response was calculated as percent maximum possible effect (% MPE), where % MPE=[(test−control)/40−control)×100]. The reaction time was scored when the animal jumped or licked its paws.

mice [4] = assay: animal or person; assay type: in vivo, mouse; conditions: for ED50: Mus musculus, sc, 0.5 h, read-out: ED50 Hypothermia
Method: Rectal temperature was measured by a thermistor probe (inserted 24 mm) and digital thermometer (Yellow Springs Instrument Co., Yellow Springs, Ohio). […] The difference in rectal temperature before and after treatment was calculated for each mouse. The ambient temperature of the laboratory varied from 21-24° C. from day to day.

mice [5] = assay type: in vivo, mouse; conditions: for AD50 Tail Flick / Tail Flick, % effect at dose: mice; for AD50 Tail Flick: antagonist test; for Tail Flick, % effect at dose: @ 100 μg/kg
Method: (§3) Antinociception was assessed by the tail-flick method of F. E. D'Amour and D. L. Smith (J. Pharmacol. Exp. Ther. 1941, 72, 74-79). A control response (2-4 sec) was determined for each mouse before treatment, and a test latency was determined after drug administration. In order to minimize tissue damage, a maximum latency of 10 sec was imposed. Antinociceptive response was calculated as percent maximum possible effect (% MPE), where % MPE=[(test−control)/(10−control)]×100. Groups of eight to twelve animals were used for each dose and for each treatment. […] Eight to twelve mice were treated per dose and a minimum of four doses were performed for dose-response curve determination.
as §2

mice [6] = assay: animal or person; assay type: in vivo, mouse; conditions: for ED50: Mus musculus, sc, read-out: ED50 Spontaneous Activity
Method: (§4) Interruptions of the photocell beams (two banks of eight cells each) were then recorded for the next 10 min. Data were expressed as number of photocell interruptions.

mice [7] = assay: animal or person; assay type: in vivo, mouse; conditions: for ED50: Mus musculus, sc, 5 min, read-out: ED50 Tail Flick; for Tail Flick, % effect at dose (ED50 column): @ 10 mg/kg; for Tail Flick, % effect at dose (ED50 column) / ED50 Tail Flick: mice, s.c.; for ED50 Tail Flick: tested 5 min after injection
Method: as §3

[8] = target: heteromeric nAChRs containing alpha and beta subunits (αβ; alpha4 beta2 predominant) (Rattus norvegicus, UniProt P09483+P12390); assay type: binding; conditions: read-out: αβ [3H]Epibatidine (Ki)
Method: The alpha4 beta2 subtype is the predominant nAChR present in brain tissue used in this assay.
Adult male rat cerebral cortices (Pelfreeze Biological, Rogers, Ark.) were homogenized in 39 volumes of ice-cold 50 mM Tris buffer (pH 7.4 at 4° C.) containing 120 mM NaCl, 5 mM KCl, 2 mM CaCl2, and 1 mM MgCl2 and sedimented at 37,000 g for 10 min at 4° C. The supernatant was discarded, the pellet resuspended in the original volume of buffer, and the wash procedure repeated twice more. After the last centrifugation, the pellet was resuspended in 1/10 its original homogenization volume and stored at −80° C. until needed. […] After a 4-h incubation period at room temperature, the samples were vacuum-filtered over GF/B filter papers presoaked in 0.03% polyethylenimine using a Brandel 48-well harvester and washed with 6 mL of ice-cold buffer. The amount of radioactivity trapped on the filter was determined by standard liquid scintillation techniques in a TriCarb 2200 scintillation counter (Packard Instruments, Meriden, Conn.) at approximately 50% efficiency. The binding data were fit using the nonlinear regression analysis routines in Prism (Graphpad, San Diego, Calif.). The Ki values for the test compounds were calculated from their respective IC50 values using the Cheng-Prusoff equation.

mice [9] = assay: Functional agonist tests (nAChR animal assays); conditions: mouse, in vivo
Method: as §3, §1, §4
Rectal temperature was measured by a thermistor probe (inserted 24 mm) and digital thermometer (Yellow Springs Instrument Co., Yellow Springs, Ohio). […]

[10] = rat cerebral cortex homogenate, 40-50 pM [125I]MLA, read-out: α7 [125I]iodoMLA (Ki)
[11] = mice, s.c., rectal temperature 30 min after injection
[12] = mice, s.c., 5 min after administration, recorded for 10 min

Compound | AD50 Tail Flick (mice [5]) | Ki [2, 10] | Ki [8] | Hot Plate, % effect at dose (ED50 column) (mice [3]) | ED50 Hypothermia (mice [4]; [11]) | ED50 Spontaneous Activity (mice [6]; [12]) | Tail Flick, % effect at dose (ED50 column) (mice [7]) | further results
Fc1ncc(C2CC3CCC2N3)cc1-c1cncnc1 (stereo not drawn) [F, 2-exo-2′-Fluoro-3′-(pyrimidin-5-yl)deschloroepibatidine fumarate] | 0.24 µg/kg |  |  |  |  |  |  | Hot Plate, % effect at dose (mice [1]; @ 100 μg/kg): 33% @ 100; Ki [2]: 1930 nM; ED50 (mice [3]): 1.2 mg/kg; ED50 (mice [4]): 0.25 mg/kg; ED50 (mice [6]): 0.15 mg/kg; ED50 (mice [7]): 2.15 mg/kg
COc1cc(-c2cc(C3CC4CCC3N4)cnc2F)ccn1 (centres unmarked) |  | 7900 ± 1080 nM | 0.04 ± 0.012 nM |  |  |  |  | 
Nc1cc(-c2cc(C3CC4CCC3N4)cnc2F)ccn1 (centres unmarked) | 9 (0.4-19) μg/kg | 719 ± 101 nM | 0.13 ± 0.005 nM | 12% @ 10 | 1.87 (0.1-3.5) mg/kg | 0.61 (0.04-9.1) mg/kg | 11% @ 10 | Hot Plate, % effect at dose (mice [1]; @ 10,000 μg/kg): 10% @ 10,000
Fc1ncc(C2CC3CCC2N3)cc1-c1ccc(Cl)nc1 (centres unmarked) | 9 (2-38) μg/kg | 6600 ± 731 nM | 0.063 ± 0.08 nM | 27% @ 10 | 3.11 (1.5-5.1) mg/kg | 1.58 (0.5-4.4) mg/kg | 10% @ 10 | AD50 Hot Plate (mice [1]): 2001 (297-3610) μg/kg
Nc1ccc(-c2cc(C3CC4CCC3N4)cnc2F)cn1 (centres unmarked) | 30 (3-35) μg/kg | 1470 ± 203 nM | 0.25 ± 0.033 nM | 8% @ 10 | 2.8 (2-3.8) mg/kg | 1.84 (0.5-6.3) mg/kg | 5% @ 10 | Hot Plate, % effect at dose (mice [1]; @ 10 μg/kg): 50% @ 10
COc1cc(-c2cncc(C3CC4CCC3N4)c2)ccn1 (centres unmarked) (as salt: fumarate) |  |  |  |  |  |  |  | melting point: 160 to 164 °C
Fc1cc(-c2cncc(C3CC4CCC3N4)c2)ccn1 (centres unmarked) (as salt: fumarate) |  |  |  |  |  |  |  | melting point: 210 to 214 °C
Fc1cc(-c2cc(C3CC4CCC3N4)cnc2F)ccn1 (centres unmarked) | 4 (0.1-70) μg/kg | 7300 ± 150 nM | 0.067 ± 0.01 nM | 18% @ 10 | 1.58 (0.97-2.1) mg/kg | 0.17 (0.08-1.5) mg/kg | 5% @ 10 | AD50 Hot Plate (mice [1]): 117 (110-1100) μg/kg
c1ncc(-c2cncc(C3CC4CCC3N4)c2)cn1 (stereo not drawn) [H, 2-exo-3′-(Pyrimidin-5-yl)deschloroepibatidine fumarate] |  |  |  |  |  |  |  | Hot Plate, % effect at dose (mice [1]; @ 100 μg/kg): 0% @ 100; Ki [2]: 32.5 ± 1.3 nM; ED50 (mice [3]): 1.63 mg/kg; ED50 (mice [4]): 0.6 mg/kg; Tail Flick, % effect at dose (mice [5]): 15% @ 100; ED50 (mice [6]): 0.32 mg/kg; ED50 (mice [7]): 1.5 mg/kg
Fc1ccc(-c2cc(C3CC4CCC3N4)cnc2F)cn1 (centres unmarked) |  | 4850 ± 1800 nM | 0.049 ± 0.02 nM |  | 0.68 (0.52-1.1) mg/kg | 0.38 (0.13-1.1) mg/kg |  | Hot Plate, % effect at dose (mice [1]; @ 100 μg/kg): 1% @ 100; ED50 Hot Plate (mice [3]): 3.27 (2.1-5.3) mg/kg; Tail Flick, % effect at dose (mice [5]): 1% @ 100; ED50 Tail Flick (mice [7]): 3.6 (2.7-4.7) mg/kg
CN1CCCC1c1cccnc1 (centres unmarked) [Nicotine, reference compound] |  |  |  |  |  |  |  | ED50 (mice [3]): 0.65 mg/kg; ED50 (mice [4]): 1 mg/kg; ED50 (mice [6]): 0.5 mg/kg; ED50 (mice [7]): 1.3 mg/kg
c1cnc2cc3c(cc2n1)[C@@H]1CNC[C@H]3C1 [varenicline, reference compound] | 0.2 µg/kg |  |  | 10% @ 10 |  |  | 11% @ 10 | AD50 Hot Plate (mice [1]): 470 µg/kg; activity in one or more of the functional agonist tests (in words) (mice [9]): partial agonists; ED50 (mice [4]; [11]): 2.8 mg/kg; functional antagonism in the tail-flick test (in words) (mice [5]; mouse, in vivo): functional antagonists; ED50 (mice [6]; [12]): 2.1 mg/kg
Fc1ncc(C2CC3CCC2N3)cc1-c1ccnc(Cl)c1 (centres unmarked) | 320 (45-3262) μg/kg | > 10000 nM | 1.18 ± 0.14 nM | 19% @ 10 | 2.74 (1.89-3.5) mg/kg | 1.01 (0.27-3.7) mg/kg | 11% @ 10 | AD50 Hot Plate (mice [1]): 1370 (180-1430) μg/kg
c1ncc(-c2cncc(C3CC4CCC3N4)c2)cn1 (stereo not drawn) (as salt: fumarate) [H, 2-exo-3′-(Pyrimidin-5-yl)deschloroepibatidine fumarate] |  |  |  |  |  |  |  | melting point: 172 to 176 °C
Clc1ncc(C2CC3CCC2N3)cc1-c1cncnc1 (stereo not drawn) [Cl, 2-exo-2′-Chloro-3′-(pyrimidin-5-yl)deschloroepibatidine fumarate] |  |  |  |  |  |  |  | Hot Plate, % effect at dose (mice [1]; @ 100 μg/kg): 2% @ 100; Ki [2]: 170 ± 64 nM; ED50 (mice [3]): 0.25 mg/kg; ED50 (mice [4]): 0.03 mg/kg; Tail Flick, % effect at dose (mice [5]): 5% @ 100; ED50 (mice [6]): 0.027 mg/kg; ED50 (mice [7]): 0.28 mg/kg
Clc1ncc(C2CC3CCC2N3)cc1-c1cncnc1 (stereo not drawn) (as salt: fumarate) [Cl, 2-exo-2′-Chloro-3′-(pyrimidin-5-yl)deschloroepibatidine fumarate] |  |  |  |  |  |  |  | melting point: 199 to 203 °C
Fc1ncc(C2CC3CCC2N3)cc1-c1cccnc1 (centres unmarked) | 3 (0.5-24) μg/kg | 5500 ± 1420 nM | 0.35 ± 0.038 nM |  | 3.7 (2.9-4.5) mg/kg | 0.69 (0.4-12.8) mg/kg |  | Hot Plate, % effect at dose (mice [1]; @ 1000 μg/kg): 10% @ 1000; ED50 Hot Plate (mice [3]): 5 (3.7-6.7) mg/kg; ED50 Tail Flick (mice [7]): 4.9 (3.6-6.7) mg/kg
Fc1ncc(C2CC3CCC2N3)cc1-c1cncnc1 (stereo not drawn) (as salt: fumarate) [2-exo-2′-Fluoro-3′-(pyrimidin-5-yl)deschloroepibatidine fumarate] |  |  |  |  |  |  |  | melting point: 160 to 163 °C
COc1ccc(-c2cc(C3CC4CCC3N4)cnc2F)cn1 (centres unmarked) | 21 (3-125) μg/kg | 524 ± 110 nM | 0.13 ± 0.027 nM |  | 0.77 (0.51-1.2) mg/kg | 0.53 (0.19-1.1) mg/kg |  | Hot Plate, % effect at dose (mice [1]; @ 100 μg/kg): 0% @ 100; ED50 Hot Plate (mice [3]): 1.72 (0.9-3.4) mg/kg; ED50 Tail Flick (mice [7]): 4.22 (3-5.3) mg/kg
Clc1ccc(C2CC3CCC2N3)cn1 (single isomer, unassigned; (-)) [(−)-epibatidine, reference compound] |  |  |  |  |  |  |  | ED50 (mice [3]): 0.004 mg/kg
Fc1ncc(C2CC3CCC2N3)cc1-c1ccncc1 (centres unmarked) | 12 (10-172) μg/kg | 9700 ± 2400 nM | 0.12 ± 0.03 nM | 40% @ 10 | 1.69 (1.1-2.6) mg/kg | 0.38 (0.2-2.7) mg/kg | 13% @ 10 | AD50 Hot Plate (mice [1]): 290 (19-991) μg/kg
